Assay results taken from patent US20130254944A1, “Herbicide Tolerant Soybeans and Methods of Use” (PIONEER HI BRED INTERNATIONAL INC, priority 2012, published 2013).

How the values were obtained:
Assay type in all cases: in vivo
[1] = system: soybean having the Als2 mutation; assay: Greenhouse postemergence test of ALS-inhibiting herbicides, soybean with Als2 mutation; details: for Avg response (% phytotoxicity), Trait Als2: Table 2; for EC10, Als2: rate of herbicide estimated to cause 10% phytotoxic response, loglogistic fit
Procedure: (§1) Soybean lines having wild type als1 & 2 genes, the Als1 mutation, the Als2 mutation, or both the Als1 and Als2 mutations were evaluated for their response to various herbicides. Two seeds from each line were planted into 4-inch pots containing Redi-Earth potting mix (Sun Gro Horticulture Canada Ltd. 52130 RR65, Seba Beach, Alberta TOE 2B0), with two replications planted for each treatment. Pots were placed in flats at 15 pots/flat, and the resulting plants were grown in a greenhouse environment supplemented with lighting (16 hr photoperiod) for the duration of the test. Selected herbicides representing the mode of action that inhibits the acetolactate synthase enzyme, also known as the acetohydroxyacid synthase enzyme, were applied postemergence to soybean when soybean plants were at the V2 growth stage, which is the stage at which the first two trifoliolate leaves were expanded.
(§2) Eleven active ingredients representing the five chemical families with herbicidal activity on the acetolactate synthase enzyme were tested. These herbicides can cause a phytotoxic response in wild type soybean plants. The five chemical families tested were sulfonylaminocarbonyltriazolinone (also known as triazolinone), imidazolinone, sulfonylurea, pyrimidinylthiobenzoate, and triazolopyrimidine. Application rates ranged from 0.5 times to eight times the currently labeled application rate for each active ingredient with spray application volume at 30 gallons/acre. The application rates tested were 0.5×, 1×, 2×, 4× and 8× the label rate for each herbicide. Herbicidal active ingredients were applied as formulated materials dispersed in water containing 0.25% nonionic surfactant (Trend® 90).
(§3) The test was evaluated by visually scoring plant phenotype 14 days after the herbicides were applied. Controls consisted of soybean plants of the same variety that received no herbicide treatments for each of all the varieties tested. Soybean response was recorded on a zero to 100 visual scale in which zero is no phytotoxic response and 100 is plant death fourteen days after the herbicides were applied. Soybean response (percent phytotoxicity) to postemergence applications of herbicides inhibiting the acetolactate synthase enzyme test results are shown in Table 1.
(§4) Results in Table 1 were evaluated using the isobole method for analyzing interactions. […] Here the biologically active agents that are being assessed for interaction (synergy) are gene mutations in soybean. The effectiveness of the genes in providing improved tolerance to ALS-inhibiting herbicides was assessed by applying increasing doses of herbicides to each soybean line with its mutation(s).
(§5) An isobole reduces a dose response surface in three dimensional space to a two dimensional plot by fixing a defined response level (e.g., 50% response). The isobole plot is a graph in the Cartesian plane with a straight line connecting the isoeffective rates of the individual components of the combination. This straight line represents expected responses for zero interactive combinations. The isoeffective rate used to create the isobole is often the EC50, the rate estimated to elicit 50% response, but other ECx values can be used. Since the isobole method is based on the potency of the components of the combination, an experimental design testing a range of rates expected to elicit the full range of responses (e.g., 0 to maximum response) is best. (Ferry et al. (2005) 2005 Conference on Applied Statistics in Agriculture Proceedings pp 33-50, Manhattan, Kans., Kansas State Univ.; Green and Streibig (1993) Herbicide Mixtures, pp 117-134 in Herbicide Bioassays, Streibig and Hudsk Eds, CRC, Boca Raton, Fla.).
(§6) Loglogistic dose response curves were fit to percent phytotoxicity response data using log 10 of dose (McCullagh and Nelder (1989) Generalized Linear Models, Chapman & Hall, London). Curves were fit using the logit link with normal errors. […]

[2] = system: soybean having the Als1 mutation; assay: Greenhouse postemergence test of ALS-inhibiting herbicides, soybean with Als1 mutation; details: for Avg response (% phytotoxicity), Trait Als1: Table 2; for EC10, Als1: rate of herbicide estimated to cause 10% phytotoxic response, loglogistic fit
Procedure: as §1, §2, §3, §4, §5, §6

[3] = system: soybean having both the Als1 and Als2 mutations; assay: Greenhouse postemergence test of ALS-inhibiting herbicides and isobole analysis, soybean with Als1 and Als2 mutations; details: for Avg response (% phytotoxicity), Trait Als1 + Als2: Table 2; for EC10, Als1 + Als2: rate of herbicide estimated to cause 10% phytotoxic response, loglogistic fit
Procedure: as §1, §2, §3, §4, §5, §6

[4] = system: wild type soybean; assay: Greenhouse postemergence test of ALS-inhibiting herbicides, wild type soybean
Procedure: as §1, §2, §3

[5] = 35 g ai/ha postemergence at V2, scored 14 days after application
[6] = 70 g ai/ha postemergence at V2, scored 14 days after application
[7] = 140 g ai/ha postemergence at V2, scored 14 days after application
[8] = 280 g ai/ha postemergence at V2, scored 14 days after application
[9] = 560 g ai/ha postemergence at V2, scored 14 days after application
[10] = 8.75 g ai/ha postemergence at V2, scored 14 days after application
[11] = 17.5 g ai/ha postemergence at V2, scored 14 days after application

With `CCc1cnc(C2=NC(C)(C(C)C)C(=O)N2)c(C(=O)O)c1` (stereo not shown) [Imazethapyr] the “Soybean response (percent phytotoxicity), Als2” value [1, 5] was 0%, the “Avg response (% phytotoxicity), Trait Als2” value ([1]; 35 g ai/ha) was 0% and the “Soybean response (percent phytotoxicity), Als2” value [1, 6] was 0%. The “Avg response (% phytotoxicity), Trait Als2” value ([1]; 70 g ai/ha) was 0%, the “Soybean response (percent phytotoxicity), Als2” value [1, 7] was 0% and the “Avg response (% phytotoxicity), Trait Als2” value ([1]; 140 g ai/ha) was 0%. For the same compound, the “Soybean response (percent phytotoxicity), Als2” value [1, 8] was 0%, the “Avg response (% phytotoxicity), Trait Als2” value ([1]; 280 g ai/ha) was 0% and the “Soybean response (percent phytotoxicity), Als2” value [1, 9] was 5%. For the same compound, the “Avg response (% phytotoxicity), Trait Als2” value ([1]; 560 g ai/ha) was 10%, the “EC10, Als2” value [1] was 560.00 g ai/ha and the “Soybean response (percent phytotoxicity), Als1” value [2, 5] was 0%. The “Avg response (% phytotoxicity), Trait Als1” value ([2]; 35 g ai/ha) was 0%, the “Soybean response (percent phytotoxicity), Als1” value [2, 6] was 0% and the “Avg response (% phytotoxicity), Trait Als1” value ([2]; 70 g ai/ha) was 0%. For the same compound, the “Soybean response (percent phytotoxicity), Als1” value [2, 7] was 0%, the “Avg response (% phytotoxicity), Trait Als1” value ([2]; 140 g ai/ha) was 0% and the “Soybean response (percent phytotoxicity), Als1” value [2, 8] was 10%. For the same compound, the “Avg response (% phytotoxicity), Trait Als1” value ([2]; 280 g ai/ha) was 10%, the “Soybean response (percent phytotoxicity), Als1” value [2, 9] was 20% and the “Avg response (% phytotoxicity), Trait Als1” value ([2]; 560 g ai/ha) was 20%. For the same compound, the “EC10, Als1” value [2] was 333.22 g ai/ha, the “Soybean response (percent phytotoxicity), Als1 + Als2” value [3, 5] was 0% and the “Avg response (% phytotoxicity), Trait Als1 + Als2” value ([3]; 35 g ai/ha) was 0%. For the same compound, the “Soybean response (percent phytotoxicity), Als1 + Als2” value [3, 6] was 0%, the “Avg response (% phytotoxicity), Trait Als1 + Als2” value ([3]; 70 g ai/ha) was 0% and the “Soybean response (percent phytotoxicity), Als1 + Als2” value [3, 7] was 0%. The “Avg response (% phytotoxicity), Trait Als1 + Als2” value ([3]; 140 g ai/ha) was 0%, the “Soybean response (percent phytotoxicity), Als1 + Als2” value [3, 8] was 5% and the “Avg response (% phytotoxicity), Trait Als1 + Als2” value ([3]; 280 g ai/ha) was 5%. For the same compound, the “Soybean response (percent phytotoxicity), Als1 + Als2” value [3, 9] was 10%, the “Avg response (% phytotoxicity), Trait Als1 + Als2” value ([3]; 560 g ai/ha) was 10% and the “EC10, Als1 + Als2” value [3] was 549.93 g ai/ha. For the same compound, the “Soybean response (percent phytotoxicity), Wild type” value [4, 5] was 0%, the “Soybean response (percent phytotoxicity), Wild type” value [4, 6] was 0% and the “Soybean response (percent phytotoxicity), Wild type” value [4, 7] was 0%. For the same compound, the “Soybean response (percent phytotoxicity), Wild type” value [4, 8] was 15% and the “Soybean response (percent phytotoxicity), Wild type” value [4, 9] was 20%.
In the case of `CCS(=O)(=O)c1cccnc1S(=O)(=O)NC(=O)Nc1nc(OC)cc(OC)n1` [Rimsulfuron], the “Soybean response (percent phytotoxicity), Als2” value [1, 10] is reported as 0%, the “Avg response (% phytotoxicity), Trait Als2” value ([1]; 8.75 g ai/ha) is reported as 0% and the “Soybean response (percent phytotoxicity), Als2” value [1, 11] is reported as 0%. The “Avg response (% phytotoxicity), Trait Als2” value ([1]; 17.5 g ai/ha) was 0%, the “Soybean response (percent phytotoxicity), Als2” value [1, 5] was 20% and the “Avg response (% phytotoxicity), Trait Als2” value ([1]; 35 g ai/ha) was 20%. The “Soybean response (percent phytotoxicity), Als2” value [1, 6] was 60%, the “Avg response (% phytotoxicity), Trait Als2” value ([1]; 70 g ai/ha) was 60% and the “Soybean response (percent phytotoxicity), Als2” value [1, 7] was 80%. For the same compound, the “Avg response (% phytotoxicity), Trait Als2” value ([1]; 140 g ai/ha) was 80%, the “EC10, Als2” value [1] was 23.88 g ai/ha and the “phytotoxicity (in words), soybean containing only the Als2 gene” value ([1]; the higher doses) was “substantial phytotoxicity”. For the same compound, the “Soybean response (percent phytotoxicity), Als1” value [2, 10] was 0%, the “Avg response (% phytotoxicity), Trait Als1” value ([2]; 8.75 g ai/ha) was 0% and the “Soybean response (percent phytotoxicity), Als1” value [2, 11] was 0%. The “Avg response (% phytotoxicity), Trait Als1” value ([2]; 17.5 g ai/ha) was 0%, the “Soybean response (percent phytotoxicity), Als1” value [2, 5] was 20% and the “Avg response (% phytotoxicity), Trait Als1” value ([2]; 35 g ai/ha) was 20%. For the same compound, the “Soybean response (percent phytotoxicity), Als1” value [2, 6] was 40%, the “Avg response (% phytotoxicity), Trait Als1” value ([2]; 70 g ai/ha) was 40% and the “Soybean response (percent phytotoxicity), Als1” value [2, 7] was 80%. For the same compound, the “Avg response (% phytotoxicity), Trait Als1” value ([2]; 140 g ai/ha) was 80%, the “EC10, Als1” value [2] was 28.61 g ai/ha and the “phytotoxicity (in words), soybean containing only the Als1 gene” value ([2]; the higher doses) was “substantial phytotoxicity”. The “Soybean response (percent phytotoxicity), Als1 + Als2” value [3, 10] was 0%, the “Avg response (% phytotoxicity), Trait Als1 + Als2” value ([3]; 8.75 g ai/ha) was 0% and the “Soybean response (percent phytotoxicity), Als1 + Als2” value [3, 11] was 0%. The “Avg response (% phytotoxicity), Trait Als1 + Als2” value ([3]; 17.5 g ai/ha) was 0%, the “Soybean response (percent phytotoxicity), Als1 + Als2” value [3, 5] was 0% and the “Avg response (% phytotoxicity), Trait Als1 + Als2” value ([3]; 35 g ai/ha) was 0%. For the same compound, the “Soybean response (percent phytotoxicity), Als1 + Als2” value [3, 6] was 10%, the “Avg response (% phytotoxicity), Trait Als1 + Als2” value ([3]; 70 g ai/ha) was 10% and the “Soybean response (percent phytotoxicity), Als1 + Als2” value [3, 7] was 10%. The “Avg response (% phytotoxicity), Trait Als1 + Als2” value ([3]; 140 g ai/ha) was 10%, the “EC10, Als1 + Als2” value [3] was 123.22 g ai/ha and the “tolerance (in words), soybean containing both the Als1 and the Als2 genes” value ([3]; the higher doses) was “extremely tolerant”. For the same compound, the “Soybean response (percent phytotoxicity), Wild type” value [4, 10] was 10%, the “Soybean response (percent phytotoxicity), Wild type” value [4, 11] was 35% and the “Soybean response (percent phytotoxicity), Wild type” value [4, 5] was 85%. For the same compound, the “Soybean response (percent phytotoxicity), Wild type” value [4, 6] was 95% and the “Soybean response (percent phytotoxicity), Wild type” value [4, 7] was 98%.
